From patent EP0585371B1, “AROMATIC OLIGOMERIC COMPOUNDS USEFUL AS MIMICS OF BIOACTIVE MACROMOLECULES” (RHONE-POULENC RORER INTERNATIONAL (HOLDINGS) INC., priority 1991, dated 1992)

What was measured:
[1] = biological target: T1, ESb mouse lymphoma heparanase (Mus musculus, UniProt Q6YGZ1); experiment: Inhibition of heparanase activity (degradation of labeled ECM heparan sulfate); type: biochemical; settings: 24 hours incubation with labeled ECM
T1 construct: endogenous in cells; host or cells: ESb mouse lymphoma cells
T1 sequence (Q6YGZ1 28-535): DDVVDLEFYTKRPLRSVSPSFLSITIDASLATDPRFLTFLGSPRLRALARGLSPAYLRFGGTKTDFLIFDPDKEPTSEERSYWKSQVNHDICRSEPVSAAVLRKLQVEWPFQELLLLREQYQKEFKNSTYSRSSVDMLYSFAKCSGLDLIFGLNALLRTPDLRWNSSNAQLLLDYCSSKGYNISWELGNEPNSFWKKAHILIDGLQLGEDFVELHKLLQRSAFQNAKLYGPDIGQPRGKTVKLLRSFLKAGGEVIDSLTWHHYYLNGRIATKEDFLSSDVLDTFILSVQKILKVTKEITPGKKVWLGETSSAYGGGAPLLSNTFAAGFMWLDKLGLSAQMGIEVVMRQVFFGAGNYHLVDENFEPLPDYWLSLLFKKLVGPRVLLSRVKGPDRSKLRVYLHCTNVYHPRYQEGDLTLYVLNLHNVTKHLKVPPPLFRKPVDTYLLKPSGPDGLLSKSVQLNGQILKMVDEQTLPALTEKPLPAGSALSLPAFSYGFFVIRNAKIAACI

[2] = tested on: human fixed thrombin activated platelets; experiment: Platelet aggregation inhibition (fibrinogen-induced); type: cell-based; settings: human fibrinogen added
[3] = tested on: Vascular smooth muscle cells (VSMC); experiment: Smooth Muscle Cell DNA Synthesis Assay (3H-thymidine incorporation in response to PDGF); type: cell-based, swine; settings: inhibition of incorporation of 3H-thymidine in response to PDGF (9 ng/ml)
Procedure: Vascular smooth muscle cells (VSMC) are isolated from swine coronaries obtained from swine hearts (Hatfield Meat Packing, Hatfield, PA) by enzyme dissociation as described by Gunther, et al., in J. Cell. Biol. 92, 289 (1982). Hyaluronidase (0.5 mg/ml) is added to facilitate dispersal. Cells are maintained in Earle's modified minimal essential medium (EMEM) with D-valine substituted for L-valine, supplemented with Hepes (10 mM), fetal bovine serum (FBS) (10%), penicillin (100 U/ml) and streptomycin ( 100 µg/ml).
The VSMC (passage 2) are plated at a density of 3 x 10^4 /cm2 (1x10^4 cells/well of 96 well tray) and after 48 hours of normal growth are arrested by replacement of above media with serum-free media for 48 hours consisting of: EMEM: Hams F12 (1:1), insulin, 5 µg/ml; transferrin, 35 µg/ml; selenite, 5 ng/ml; antibiotics and buffer (as above). The oligomer of the present invention to be tested (.01-10 µM) is added 2 hours prior to addition of porcine platelet derived growth factor (Research and Diagonostics, Minneapolis, MN), or FBS,in fresh serum-free media. Twenty-four hours later the oligomers are again added preceding addition of growth factors by 2 hours. […]
The VSMC are pulsed (5 hours) with ^3H-thymidine (Amersham, Arlington Heights, IL) (1 µCi/well of a 96 well plate; 42 Ci/mmole) added 15-18 hours after the last dose of growth factor. DNA synthesis is determined in NaOH extraction of ethanol/ether fixed cells as reported by Nemecek, et al., PNAS 83, 674 (1986). The cells are washed with phosphate bufferred saline (200 µl/well of 96-well tray. The cells are incubated with trichloroacetic acid (TCA) (10%, 200 ul) for 5 minutes to remove cytoplasmic label. After a rapid wash with cold 10% TCA, cells are fixed with ethanol/ether (2:1, 200 µl/well 5 min) and dried. The labeled DNA is extracted with 0.5 N NaOH (200 µl/well 30 min incubation, room temperature). The extracted DNA is neutralized (0.5 N HCI) and counted by liquid scintillation.
Statistical evaluation is as reported by Bilder, et al., Am. […] IC50 values are calculated by linear regression (RPL of RS1) from % inhibition of a minimum of 3 log fold dilutions of oligomers in the presence of PDGF (9 ng/ml) which give 70-80% of a maximal PDGF response. […] Percent inhibition is calculated by comparing the effect of PDGF alone (vehicle treated cultures + PDGF minus vehicle treated cultures without PDGF) to the effect of oligomers (oligomer + PDGF minus oligomer alone) and divided by the effect of PDGF times 100. i.e., = % inhibition = ((ΔVehicle + PDGF) - (Δoligomer + PDGF)/(Δvehicle + PDGF)) x 100.

Cc1cc(O)c(Cc2cc(O)c(Cc3cc(O)c(Cc4cc(O)c(Cc5cc(O)c(Cc6cc(O)c(Cc7cc(O)c(Cc8cc(O)ccc8CCC(=O)O)cc7CCC(=O)O)cc6CCC(=O)O)cc5CCC(=O)O)cc4CCC(=O)O)cc3CCC(=O)O)cc2CCC(=O)O)cc1CCC(=O)O [Ex 4, 5-[4-[4-[4-[4-[4-[4-[[2-(2-carboxyethyl)-5-hydroxy]benzyl]-[2-(2-carboxyethyl)-5-hydroxy]benzyl]-[2-(2-carboxyethyl)-5-hydroxy]benzyl]-[2-(2-carboxyethyl)-5-hydroxy]benzyl]-[2-(2-carboxyethyl)-5-hydroxy]benzyl]-[2-(2-carboxyethyl)-5-hydroxy]benzyl]-[2-(2-carboxyethyl)-5-hydroxy]benzyl]-4-hydroxy-2-methylhydrocinnamic acid]
% Inhibition of Heparanase Activity (5µg/ml) [1]: 2% | Platelet Aggregation IC50 [2]: >1000 µg/mL | IC50 [3]: 1.6 µM
